“Also recorded” adds a separate entry of the source.
Key:
[1] = tested on: PPC-1 cells; assay: T7 phage binding to PPC-1 (PPC1) cells at 4° C., quantified by titration/plaque assay; format: cell-based, human
Method: FIG. 2A: Binding of T7 phage to prostate cancer cells depends on the display of a C-terminal arginine on the phage particles. PPC1 cells were incubated with T7 bacteriophage displaying derivatives of the G7 (upper graph) or RPARPAR peptide (SEQ ID NO: 2) (lower graph) at 4° C., and the bound phage was quantified by plaque assay. Binding is expressed in fold over of the non-binding G7 control phage. FIG. 2B: Phage displaying C-terminal arginine is internalized into cultured PPC1 cells (arrow, nuclear internalization; arrowhead, cytoplasmic internalization). A panel of T7 phage clones were incubated at 37° C. with PPC1 cells grown on collagen-coated coverslips, stained with anti T7 antibody and imaged by confocal microscopy.
(§1) Phage display. For in vivo phage display, mice were injected intravenously with 10^10 plaque-forming units (pfu) of T7 phage followed by perfusion of the circulatory system and determination of the bound phage in target organs by titration. For cell binding studies on cultured cells (in vitro display) and organ-derived cell suspensions (ex vivo display), the cells were incubated with 10^9 pfu of phage at 4° C., washed, lysed, and quantified by titration. Incubation at 37° C. followed by low pH wash (glycine-HCl, pH 2.5) was used to assess the amount of internalized phage.
For biopanning and phage binding studies (Hoffman, J. A. et al., 2004), cultured cells were grown to confluence and harvested with trypsin and mouse organs were dissociated using Medimachine (BD Biosciences, San Jose, CA). To measure phage binding, 10^6 cells in binding buffer (DMEM containing 1% BSA) were incubated with 10^9 pfu/ml of T7 phage for 1 hour at 4° C. The cells were washed 4 times with the binding buffer, lysed in LB bacterial growth medium containing 1% NP-40, and titrated. Phage internalization assays used the same procedure, except that the cells were incubated with the phage at 37° C., and that an acidic buffer (500 mM sodium chloride, 0.1 M glycine, 1% BSA, pH 2.5) was used instead of binding buffer in the second wash.
Centrifugation on a silicone oil cushion (1.03 g/ml) was used to separate unbound phage from cells during time course experiments. Inhibitors of phage binding and internalization (heparin, chondroitin, glycocalyx removal enzymes, endocytosis inhibitors, free peptides, quantum dots and UV-inactivated phage) were added to the cells 20 minutes prior to incubation with phage. Endocytosis inhibitors used in this study were the following: nystatin (50 μg/ml), genistein (100 μg/ml), chlorpromazine (5 μg/ml), 5-(N-ethyl-N-isopropyl) amiloride (100 μM), wortmannin (10 μM).

[2] = tested on: PPC-1 cells; assay: Binding and internalization of peptide-coated quantum dots by PPC-1 cells (confocal/fluorescence microscopy); format: cell-based, human; settings: excess of RPARPAR-displaying phage
[3] = tested on: Du-145; assay: RPARPAR phage binding to cultured cells at 4° C.; format: cell-based, human; settings: Du-145 prostate cancer cells
Method: (§2) FIG. 15A: Binding of RPARPAR (SEQ ID NO:2) phage to the cultured cells at 4° C. in vitro. FIG. 15B: Binding of RPARPAR (SEQ ID NO:2) phage to primary cell suspensions of mouse organs at 4° C. ex vivo. FIGS. 15C and 15D: Tissue distribution of intravenously injected RPARPAR (SEQ ID NO:2) phage after 20 minutes of circulation time. FIG. 15C: Phage was quantified by titration, tissue binding is expressed as fold G7 phage. Statistical analysis was performed by Student's t-test (c). n=3; error bars indicate s.d.; double asterisk, p<0.01, triple asterisk, p<0.001. FIG. 15D (panels d and e): Immunofluorescence localization of T7 phage (light coloring) in lung sections of mice injected intravenously with RPARPAR (SEQ ID NO:2) (d) or G7 (e) phage. Widespread immunoreactivity is present in the lungs of mice injected with RPARPAR (SEQ ID NO:2) (arrowheads in d) but not G7 (with occasional labeling seen in vessels, arrows in e). Scale bar: 50 μm.
as §1, with “Incubation at 37° C. followed by low pH wash (glycine-HCl, pH 2.5) was used to assess the amount of internalized phage.” left out

[4] = tested on: PC-3; assay: RPARPAR phage binding to cultured cells at 4° C.; format: cell-based, human; settings: PC-3 prostate cancer cells
Method: as §2
as §1, with “Incubation at 37° C. followed by low pH wash (glycine-HCl, pH 2.5) was used to assess the amount of internalized phage.” left out

[5] = molecular target: T1, wild-type NRP-1 (Homo sapiens, UniProt O14786); assay: Phage binding and internalization in M21 melanoma cells transiently transfected with wild-type NRP-1; format: cell-based
T1 construct: expressed in transfected cells; host or cells: M21 melanoma cells, transient transfection with lipofectamine; pcDNA3.1(+) construct, gift of Dr. Michael Klagsbrun
Method: (§3) FIGS. 18A-18C show the identification and validation of NRP-1 as the CendR receptor. FIG. 18A: Affinity chromatography of proteins interacting with RPARPAR (SEQ ID NO: 2) peptide. PPC-1 tumor tissue was extracted with a 200 mM glucopyranoside buffer, and the extract was incubated with RPARPAR-coated (SEQ ID NO:2) beads, followed by extensive washes, and elution with 2 mM free RPARPAR (SEQ ID NO:2) peptide. Note appearance of a 130 kDa band, identified by mass spectroscopy as NRP-1, starting in the fraction 3 of the eluate. Upper panel—a silver stained gel, lower panel—an immunoblot with anti-NRP-1 antibody. FIG. 18B: Binding of RPARPAR (SEQ ID NO:2) phage to M21 melanoma cells transiently transfected with wild-type NRP-1 (NRP-1), triple mutant NS346A-E348A-T349A NRP-1 (Mutant NRP-1), or parental pcDNA3.1plasmid (Vector), and to non-transfected M21 cells. FIG. 18C: (c, d), Confocal immunofluorescence images of NRP-1 and RPARPAR (SEQ ID NO:2) T7 phage in PPC-1 cells incubated with phage at 37° C. for 40 minutes (c) and 3 hours (d). The phage and NRP-1 co-localize extensively, but there appears to be a progressive decrease in the overlap (arrowheads in c and d) and appearance of structures positive for the phage only (arrows, d). (e) Immunostaining and confocal imaging of RPARPAR (SEQ ID NO:2) phage and NRP-1 in M21 cells transiently transfected with NRP-1. […]

[6] = molecular target: T2, triple mutant NS346A-E348A-T349A NRP-1 (Homo sapiens, UniProt O14786, E348A/S346A/T349A); assay: Phage binding to M21 melanoma cells transfected with NRP-1 binding pocket mutant; format: cell-based
T2 construct: expressed in transfected cells; host or cells: M21 melanoma cells, transient transfection with lipofectamine; site-directed mutant of the wild-type NRP-1 cDNA in pcDNA3.1(+)
Method: as §3

T2 sequence (O14786 22-923 S346A/E348A/T349A): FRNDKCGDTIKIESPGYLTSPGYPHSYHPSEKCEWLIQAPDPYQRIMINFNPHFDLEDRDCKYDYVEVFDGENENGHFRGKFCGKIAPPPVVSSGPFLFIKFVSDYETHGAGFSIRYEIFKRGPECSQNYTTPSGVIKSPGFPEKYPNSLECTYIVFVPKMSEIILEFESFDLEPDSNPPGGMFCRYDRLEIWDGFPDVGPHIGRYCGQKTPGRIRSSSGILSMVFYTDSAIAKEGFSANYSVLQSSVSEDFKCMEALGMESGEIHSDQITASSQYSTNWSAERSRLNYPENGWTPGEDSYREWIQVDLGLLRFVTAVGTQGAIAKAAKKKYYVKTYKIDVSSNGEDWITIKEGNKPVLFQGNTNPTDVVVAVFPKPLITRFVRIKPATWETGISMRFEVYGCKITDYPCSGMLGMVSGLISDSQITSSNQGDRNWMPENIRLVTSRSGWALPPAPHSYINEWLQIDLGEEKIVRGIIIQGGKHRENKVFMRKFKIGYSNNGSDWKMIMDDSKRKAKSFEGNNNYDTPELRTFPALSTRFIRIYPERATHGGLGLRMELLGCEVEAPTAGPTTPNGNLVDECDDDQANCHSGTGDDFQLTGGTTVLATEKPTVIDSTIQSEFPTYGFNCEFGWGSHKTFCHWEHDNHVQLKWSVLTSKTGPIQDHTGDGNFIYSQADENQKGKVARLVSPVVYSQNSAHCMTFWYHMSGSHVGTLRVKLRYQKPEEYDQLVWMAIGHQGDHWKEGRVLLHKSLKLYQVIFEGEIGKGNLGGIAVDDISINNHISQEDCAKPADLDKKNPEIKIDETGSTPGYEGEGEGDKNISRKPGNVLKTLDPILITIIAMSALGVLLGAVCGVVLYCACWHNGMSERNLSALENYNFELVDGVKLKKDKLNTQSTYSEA
T1 sequence (O14786 22-923): as the sequence (O14786 22-923 S346A/E348A/T349A) above, with A325S, A327E, A328T counted along it

## RPARPAR [RPARPAR phage]
[1]; 4° C.
  Phage binding to PPC-1 cells (in words): stronger binding than the GGGGGGR; also recorded: robust binding and internalization
  Time to plateau of phage binding: 20 min
[1]; trypsin treatment of cells prior to binding, data not shown
  Phage binding after trypsin treatment of PPC-1 cells: decreased binding
[2]
  Effect of pre-incubation of cells with excess phage on RPARPAR-Q-dot internalization: inhibited
[3]
  Phage binding: bound
[4]
  Phage binding: bound
[5]
  Phage binding and internalization by M21 cells with forced expression of NRP-1: capable of binding and internalizing
[6]
  Phage binding to M21 cells transfected with NRP-1 binding pocket mutant: did not confer
